From ChEMBL document CHEMBL1201862, “PubChem BioAssay data set” (2004)
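All cell lines were grown in 96-well plates and treated with compound for 48 hours. GI50: concentration for 50% inhibition of growth.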 Calls of active or inactive are those of the source. No stated cut-off is given here; in the data, active = GI50 up to about 1.1 µM and inactive = higher.

Columns and labels:
Experiment in all cases: growth of human tumour cells (NCI), 48 h
CCRF-CEM = tested on: CCRF-CEM
COLO 205 = tested on: COLO 205
HCC 2998 = tested on: HCC 2998
HCT-116 = tested on: HCT-116
HCT-15 = tested on: HCT-15
HOP-62 = tested on: HOP-62
Hs-578T = tested on: Hs-578T
LOX IMVI = tested on: LOX IMVI
MDA-MB-435 = tested on: MDA-MB-435
Malme-3M = tested on: Malme-3M
NCI-H23 = tested on: NCI-H23
NCI-H460 = tested on: NCI-H460
OVCAR-3 = tested on: OVCAR-3
OVCAR-5 = tested on: OVCAR-5
PC-3 = tested on: PC-3
SF-268 = tested on: SF-268
SK-MEL-5 = tested on: SK-MEL-5
SK-OV-3 = tested on: SK-OV-3
SR = tested on: SR
SW-620 = tested on: SW-620

| Compound | GI50 (CCRF-CEM) | GI50 (COLO 205) | GI50 (HCC 2998) | GI50 (HCT-116) | GI50 (HCT-15) [µM] | GI50 (HOP-62) | GI50 (Hs-578T) | GI50 (LOX IMVI) | GI50 (MDA-MB-435) | GI50 (Malme-3M) | GI50 (NCI-H23) | GI50 (NCI-H460) | GI50 (OVCAR-3) | GI50 (OVCAR-5) | GI50 (PC-3) | GI50 (SF-268) | GI50 (SK-MEL-5) | GI50 (SK-OV-3) | GI50 (SR) | GI50 (SW-620) |
| --- | --- | --- | --- | --- | --- | --- | --- | --- | --- | --- | --- | --- | --- | --- | --- | --- | --- | --- | --- | --- |
| CN(C)CCn1c(=O)c2ccc3c4c(nn3CCN(C)C)c3cc([N+](=O)[O-])ccc3n(c1=O)c24 | < 0.0125 µM (active) | 0.0548 µM (active) | 0.0411 µM (active) | < 0.0154 µM (active) | 0.0261 | < 0.0212 µM (active) | 0.144 µM (active) | 0.0447 µM (active) | 0.0675 µM (active) | 0.328 µM (active) | 0.105 µM (active) | < 0.0128 µM (active) | 0.0883 µM (active) | < 0.0253 µM (active) | 0.0641 µM (active) | < 0.0256 µM (active) | 0.594 µM (active) | 0.0783 µM (active) | < 0.01 µM (active) | < 0.0134 µM (active) |
| CCOC(=O)c1c2c(n(-c3ccc(C)cc3)c1C)-c1ccccc1C(=O)C2(C(=O)OCC)C(=O)OCC | 29 µM (inactive) | 45.3 µM (inactive) | 31.4 µM (inactive) | 31.4 µM (inactive) | 36.1 | 78.7 µM (inactive) | 25.3 µM (inactive) | 33.8 µM (inactive) | 29.1 µM (inactive) | 30.1 µM (inactive) | 57.5 µM (inactive) | 35.5 µM (inactive) | 25.3 µM (inactive) | 74 µM (inactive) | 33.7 µM (inactive) | 34.3 µM (inactive) | 19.2 µM (inactive) | > 76.6 µM (inactive) | 1.31 µM (inactive) | 37.1 µM (inactive) |
| O=C1/C(=C/c2ccc(O)cc2)CC/C1=C\c1ccc(O)cc1 | 1.52 µM (inactive) | > 100 µM (inactive) | > 100 µM (inactive) | > 100 µM (inactive) | > 100 | > 61.8 µM (inactive) | > 100 µM (inactive) | > 100 µM (inactive) | > 100 µM (inactive) | > 72.6 µM (inactive) | > 100 µM (inactive) | 44.7 µM (inactive) | > 100 µM (inactive) | > 100 µM (inactive) | 59.6 µM (inactive) | > 95.1 µM (inactive) | > 100 µM (inactive) | > 100 µM (inactive) | 3.37 µM (inactive) | > 100 µM (inactive) |
